Tests used:
[1] = target: T1, Estrogen-related receptor gamma (Homo sapiens, UniProt P62508)
T1 sequence (P62508 whole entry): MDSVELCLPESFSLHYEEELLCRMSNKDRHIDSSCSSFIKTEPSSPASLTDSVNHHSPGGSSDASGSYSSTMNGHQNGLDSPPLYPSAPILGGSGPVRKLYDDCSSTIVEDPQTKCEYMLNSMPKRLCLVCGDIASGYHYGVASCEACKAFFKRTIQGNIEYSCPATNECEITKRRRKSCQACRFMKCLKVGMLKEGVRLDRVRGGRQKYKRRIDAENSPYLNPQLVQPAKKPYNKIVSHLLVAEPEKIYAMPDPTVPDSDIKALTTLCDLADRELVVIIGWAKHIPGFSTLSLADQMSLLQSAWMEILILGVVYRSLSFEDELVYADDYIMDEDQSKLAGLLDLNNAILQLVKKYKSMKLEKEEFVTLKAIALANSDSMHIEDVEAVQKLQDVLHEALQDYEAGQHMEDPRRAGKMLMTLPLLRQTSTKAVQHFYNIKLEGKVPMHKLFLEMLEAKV

[2] = target: T2, Steroid hormone receptor ERR2 (Homo sapiens, UniProt O95718); assay: Binding affinity to GST-tagged ERRbeta LBD (unknown origin) using fluorescein PGC1alpha as coactivator incubated for 1 hr by LanthaScreen TR-FRET co-regulator assay
T2 sequence (O95718 whole entry): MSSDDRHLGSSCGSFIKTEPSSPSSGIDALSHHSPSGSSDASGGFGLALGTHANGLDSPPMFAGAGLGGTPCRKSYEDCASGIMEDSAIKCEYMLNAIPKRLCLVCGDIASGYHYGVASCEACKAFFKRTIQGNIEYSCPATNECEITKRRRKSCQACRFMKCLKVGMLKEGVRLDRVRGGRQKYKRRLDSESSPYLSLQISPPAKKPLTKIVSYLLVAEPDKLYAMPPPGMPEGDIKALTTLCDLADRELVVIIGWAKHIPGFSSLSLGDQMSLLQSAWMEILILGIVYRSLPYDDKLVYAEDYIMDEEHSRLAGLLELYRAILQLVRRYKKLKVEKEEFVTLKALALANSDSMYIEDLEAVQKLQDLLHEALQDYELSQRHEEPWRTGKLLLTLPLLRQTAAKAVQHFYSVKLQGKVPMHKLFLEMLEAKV

[3] = target: T3, Steroid hormone receptor ERR1 (Homo sapiens, UniProt P11474); assay: Binding affinity to GST-tagged ERRalpha LBD (unknown origin) using fluorescein PGC1alpha as coactivator incubated for 1 hr by LanthaScreen TR-FRET co-regulator assay
T3 sequence (P11474 whole entry): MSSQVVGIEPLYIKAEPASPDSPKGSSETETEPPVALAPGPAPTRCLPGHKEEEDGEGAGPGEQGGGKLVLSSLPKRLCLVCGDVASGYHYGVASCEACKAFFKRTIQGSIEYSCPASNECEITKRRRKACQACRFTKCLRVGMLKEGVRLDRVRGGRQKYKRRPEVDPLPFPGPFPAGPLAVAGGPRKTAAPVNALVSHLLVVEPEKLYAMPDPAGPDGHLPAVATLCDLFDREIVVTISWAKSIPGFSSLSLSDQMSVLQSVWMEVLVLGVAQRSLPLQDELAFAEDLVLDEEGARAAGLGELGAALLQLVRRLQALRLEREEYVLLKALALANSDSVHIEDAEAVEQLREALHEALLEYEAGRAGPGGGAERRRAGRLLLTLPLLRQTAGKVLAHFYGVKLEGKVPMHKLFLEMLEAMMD

Estrogen receptor = target: T4, Estrogen receptor (Homo sapiens, UniProt P03372); assay: Binding affinity to GST-tagged ERalpha LBD (unknown origin) using fluorescein PGC1alpha as coactivator incubated for 1 hr by LanthaScreen TR-FRET co-regulator assay
T4 sequence (P03372 whole entry): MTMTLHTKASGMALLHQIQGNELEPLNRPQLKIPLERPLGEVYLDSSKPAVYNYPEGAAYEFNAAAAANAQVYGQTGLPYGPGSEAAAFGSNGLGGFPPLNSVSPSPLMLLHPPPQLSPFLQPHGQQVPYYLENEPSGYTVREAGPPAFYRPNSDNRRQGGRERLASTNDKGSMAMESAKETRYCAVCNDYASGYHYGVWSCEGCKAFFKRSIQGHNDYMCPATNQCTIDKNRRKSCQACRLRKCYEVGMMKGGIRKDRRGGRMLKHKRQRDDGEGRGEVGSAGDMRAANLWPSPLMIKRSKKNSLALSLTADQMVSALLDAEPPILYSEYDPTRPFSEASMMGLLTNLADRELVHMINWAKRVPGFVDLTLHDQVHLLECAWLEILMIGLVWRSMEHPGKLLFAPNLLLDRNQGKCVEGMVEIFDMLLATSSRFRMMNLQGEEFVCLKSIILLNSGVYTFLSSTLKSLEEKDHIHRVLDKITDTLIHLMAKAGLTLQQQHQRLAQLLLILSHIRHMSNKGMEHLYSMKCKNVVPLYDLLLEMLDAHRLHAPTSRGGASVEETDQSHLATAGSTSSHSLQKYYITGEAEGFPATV

OCCC/C(=C(\c1ccc(O)cc1)c1ccc2c(c1)CCN2CCN1CCCC1)c1ccccc1
IC50 [1]: 8020 nM

CN1CCN(Cc2ccc(/C(=C(/CCCO)c3ccccc3)c3ccc(O)cc3)cc2)CC1
IC50 [1]: 2340 nM

OCCC/C(=C(\c1ccc(Br)cc1)c1ccc(OCCN2CC2)cc1)c1ccccc1
IC50 [1]: 1520 nM

OCCC/C(=C(\c1ccc(O)cc1)c1ccc(OCCN2C[C@H]3CNC[C@H]3C2)cc1)c1ccccc1
IC50 [2]: > 10000 nM
IC50 [1]: 165 nM
IC50 [3]: > 10000 nM
IC50 (Estrogen receptor): 407 nM

OCCC/C(=C(\c1ccc(O)cc1)c1ccc(OCCN2CCC[C@@H]2CO)cc1)c1ccccc1
IC50 [2]: > 10000 nM
IC50 [3]: > 10000 nM

OCCC/C(=C(\c1ccc(O)cc1)c1ccc2c(ccn2CCN2CCCCC2)c1)c1ccccc1
IC50 [1]: 3610 nM

OCCC/C(=C(\c1ccc(O)cc1)c1ccc2oc(CCN3CCCCC3)cc2c1)c1ccccc1
IC50 [2]: > 10000 nM
IC50 [1]: 268 nM
IC50 [3]: > 10000 nM
IC50 (Estrogen receptor): 660 nM

C[Si](C)(CN1CCNCC1)c1ccc(/C(=C(/CCCO)c2ccccc2)c2ccc(O)cc2)cc1
IC50 [1]: 1280 nM

O=C(Nc1ccc(/C(=C(/CCCO)c2ccccc2)c2ccc(O)cc2)cc1)C1CCCN1 (stereo not given)
IC50 [1]: > 10000 nM

OCCC/C(=C(\c1ccc(O)cc1)c1ccc(NCCN2CCCCC2)cc1)c1ccccc1
IC50 [1]: 1550 nM

OCCC/C(=C(\c1ccc(O)cc1)c1ccc(OCCN2CCNCC2)cc1)c1ccccc1
IC50 [1]: 1040 nM

OCCC/C(=C(\c1ccc(O)cc1)c1ccc(N2CCOCC2)cc1)c1ccccc1
IC50 [1]: 2230 nM

CN1C[C@@H]1CCCOc1ccc(/C(=C(/CCCO)c2ccccc2)c2ccc(O)cc2)cc1 (stereo not given in full)
IC50 [1]: 1090 nM

CN1CCN(CCOc2ccc(/C(=C(/CCCO)c3ccccc3)c3ccc(O)cc3)cc2)CC1
IC50 [1]: 2200 nM

O=[N+]([O-])c1ccc(/C(=C(\CCCO)c2ccccc2)c2ccc(N3CCC4(CCNC4)C3)cc2)cc1 (stereo not given)
IC50 [1]: 8230 nM

OCCC/C(=C(\c1ccc(O)cc1)c1ccc2oc(CCN3CCNCC3)cc2c1)c1ccccc1
IC50 [1]: 894 nM

OCCC/C(=C(\c1ccc(Br)cc1)c1ccc(CN2CCCCC2)cc1)c1ccccc1
IC50 [1]: 2300 nM

CN(C)CCn1cc(-c2ccc(/C(=C(/CCCO)c3ccccc3)c3ccc(O)cc3)cc2)nn1
IC50 [1]: 6300 nM

C[Si](C)(CN1CCCCC1)c1ccc(/C(=C(/CCCO)c2ccccc2)c2ccc(O)cc2)cc1
IC50 [2]: > 10000 nM
IC50 [1]: 248 nM
IC50 [3]: > 10000 nM
IC50 (Estrogen receptor): 4360 nM

CN1C[C@H]1CCCOc1ccc(/C(=C(/CCCO)c2ccccc2)c2ccc(O)cc2)cc1 (stereo not given in full)
IC50 [1]: 784 nM

O=C(CN1CCCCC1)Nc1ccc(/C(=C(/CCCO)c2ccccc2)c2ccc(O)cc2)cc1
IC50 [1]: 2780 nM

CN1C[C@@H]1CCCOc1ccc(/C(=C(/CCCO)c2ccccc2)c2ccc(Br)cc2)cc1 (stereo not given in full)
IC50 [1]: 1660 nM

CN1CCN(C[Si](C)(C)c2ccc(/C(=C(/CCCO)c3ccccc3)c3ccc(O)cc3)cc2)CC1
IC50 [1]: 1260 nM

Cc1ccc(/C(=C(\CCCO)c2ccccc2)c2ccc3oc(CCN4CCNCC4)cc3c2)cc1
IC50 [1]: 2130 nM

CN1CCC[C@H]1CCOc1ccc(/C(=C(/CCCO)c2ccccc2)c2ccc(O)cc2)cc1
IC50 [2]: 8590 nM
IC50 [3]: > 10000 nM
IC50 (Estrogen receptor): 724 nM

CN1CCN(Cc2ccc(/C(=C(/CCCO)c3ccccc3)c3ccc([N+](=O)[O-])cc3)cc2)CC1
IC50 [1]: > 10000 nM

OCCC/C(=C(\c1ccc(O)cc1)c1ccc(OCCN2CC2)cc1)c1ccccc1
IC50 [2]: 3720 nM
IC50 [1]: 70 nM
IC50 [3]: > 10000 nM

C[Si](C)(CN1CCCC1)c1ccc(/C(=C(/CCCO)c2ccccc2)c2ccc(O)cc2)cc1
IC50 [2]: > 10000 nM
IC50 [1]: 813 nM
IC50 [3]: > 10000 nM
IC50 (Estrogen receptor): > 10000 nM

OCCC/C(=C(\c1ccc(O)cc1)c1ccc(OCCN2CC3CC3C2)cc1)c1ccccc1 (stereo not given)
IC50 [3]: > 10000 nM

OCCC/C(=C(\c1ccc(O)cc1)c1ccc(OCCN2C[C@H]3C[C@H]3[C@H]2CO)cc1)c1ccccc1
IC50 [3]: > 10000 nM

CN1CCC[C@@H]1CCOc1ccc(/C(=C(/CCCO)c2ccccc2)c2ccc(O)cc2)cc1
IC50 [2]: > 10000 nM
IC50 [3]: > 10000 nM
IC50 (Estrogen receptor): 784 nM

C[Si](C)(CN1C[C@H]2CNC[C@H]2C1)c1ccc(/C(=C(/CCCO)c2ccccc2)c2ccc(O)cc2)cc1
IC50 [1]: 460 nM

OCCC/C(=C(\c1ccc(O)cc1)c1ccc(OCCN2CCCC2)cc1)c1ccccc1
IC50 [2]: > 10000 nM
IC50 [3]: > 10000 nM
IC50 (Estrogen receptor): 649 nM

OCCC/C(=C(\c1ccc(O)cc1)c1ccc(OCCN2CCC3(CCNC3)C2)cc1)c1ccccc1 (stereo not given)
IC50 [2]: > 10000 nM
IC50 [1]: 326 nM
IC50 [3]: > 10000 nM
IC50 (Estrogen receptor): 5600 nM

CC(C)(C)OC(=O)N1CCC(n2cc(/C(=C(/CCCO)c3ccccc3)c3ccc(O)cc3)cn2)CC1
IC50 [1]: > 10000 nM

O=C(CN1C[C@H]2CNC[C@H]2C1)Nc1ccc(/C(=C(/CCCO)c2ccccc2)c2ccc(O)cc2)cc1
IC50 [1]: 7420 nM
